Experiments:
Type in all cases: in vivo, Brown Norway rats
[1] = system: photoreceptor cells of detached retina (outer nuclear layer); experiment: Outer nuclear layer (ONL) thickness after experimental retinal detachment; details: 500 mg/kg/day i.p., mean±SD
Excerpt: (§1) In the examples described herein, all animal experiments adhered to the Association for Research in Vision and Ophthalmology Statement for the Use of Animals in Ophthalmic and Vision Research, and protocols were approved by the Animal Care Committee of the Massachusetts Eye and Ear Infirmary. Adult male Brown Norway rats (200 to 300 g) were purchased from Charles River Laboratories (Wilmington, Mass.). The rats were fed standard laboratory chow and allowed free access to water in an air-conditioned room with a 12 hour light/12 hour dark cycle.
(§2) Experimental retinal detachment was induced by subretinal injection of hyaluronic acid as previously described (Hisatomi T et al. (2001) AM. J. PATHOL. 158:1271-1278). […] Body temperature was monitored and the animals were kept on a heating pad during the procedure as well as during the recovery period. […]
(§3) All values disclosed below were expressed as the mean±SD. Statistical differences between two groups were analyzed by Mann-Whitney U test. […]
Photoreceptor loss was evaluated by measuring the thickness of the outer nuclear layer (ONL). ONL thickness was determined using National Institutes of Health ImageJ software. Thickness was measured based on the outer boundaries of the DAPI nuclear stain. […]

caspase 2 = experiment: Caspase 2 colorimetric activity assay in retinal lysates after retinal detachment; details: retinal lysates 24 hours after retinal detachment; 500 mg/kg/day i.p.; P<0.05
Excerpt: as §1
(§4) Experimental retinal detachment was induced by subretinal injection of hyaluronic acid as previously described (Hisatomi T et al. (2001) AM. J. PATHOL. 158:1271-1278). Briefly, rats were anesthetized with 100 μl of a mixture of 5 parts Ketamine (100 mg/ml, Phoenix Pharmaceutical, Inc., St Joseph, Mo.), 4 parts PBS and 1 part Xylazine (100 mg/ml, Lloyd Laboratories, Inc., Shenandoah, Iowa). Body temperature was monitored and the animals were kept on a heating pad during the procedure as well as during the recovery period. […]
(§5) The caspase assays were performed on the retina of animals without retinal detachment (n=6) as well as animals with retinal detachment that received vehicle (n=8) or TUDCA (n=8). […] Optical density was assessed at 405 nm and normalized for protein concentration, initial optical density, and compared to a sample filled with buffer. […]

[2] = system: photoreceptor cells of detached retina (outer nuclear layer); experiment: TUNEL staining of photoreceptor death after experimental retinal detachment; details: administration started six hours after induction of retinal detachment; P=0.03; readout not given
Excerpt: as §1, §2, §3
Photoreceptor death was assessed by TUNEL staining, which detects DNA fragmentation in apoptotic or necrotic nuclei. […] Fluorescence was imaged using a DM RXA microscope (Leica, Solms Germany) and digitally captured. The number of TUNEL-positive cells per mm^2 at the central area of the detached retina was counted in a masked fashion. […]

protein carbonyl content = experiment: Protein carbonyl content ELISA (oxidative stress) in retina after retinal detachment; details: one day (24 hours) after retinal detachment; 500 mg/kg/day i.p.; vs vehicle
Excerpt: as §1, §4
In order to assess the effect of TUDCA treatment on oxidative stress, the protein carbonyl content in the retina was determined Eight eyes from each group (animals without retinal detachment as well as animals with retinal detachment that received vehicle or TUDCA) were analyzed using ELISA assays. […]

MCP-1 = MCP-1 ELISA on retinal lysates after retinal detachment; details: samples 24 and 72 hours after retinal detachment (FIG. 2B: one day); 500 mg/kg/day i.p.; vs vehicle
Excerpt: as §1
as §4, with “period. The pupils were dilated with drops of phenylephrine 5%/tropicamide 0.5%.” for “period.”
(§6) In order to measure inflammatory cytokines, eight eyes from each group (animals without retinal detachment as well as animals with retinal detachment that received vehicle or TUDCA) were analyzed using ELISA assays. […]

CHOP = CHOP western blot (ER stress) of vitreous and neural retina after retinal detachment; details: three days after retinal detachment, systemic administration 500 mg/kg/day i.p.
Excerpt: as §1
as §4, with “period. The pupils were dilated with drops of phenylephrine 5%/tropicamide 0.5%. A partial retinal detachment was induced with a transscleral, subretinal injection of approximately 50 μl of 1% sodium hyaluronate (Provisc, Alcon Laboratories Inc., Fort Worth, Tex.).” for “period.”

TNF-α = TNF-α ELISA on retinal lysates after retinal detachment; details: 24 hours after retinal detachment; 500 mg/kg/day i.p.; vs vehicle
Excerpt: as §1
as §4, with “period. The pupils were dilated with drops of phenylephrine 5%/tropicamide 0.5%.” for “period.”
as §6

caspase 9 = experiment: Caspase 9 colorimetric activity assay in retinal lysates after retinal detachment; details: retinal lysates 24 hours after retinal detachment; 500 mg/kg/day i.p.; P<0.05
Excerpt: as §1, §4, §5

caspase 8 = experiment: Caspase 8 colorimetric activity assay in retinal lysates after retinal detachment; details: retinal lysates 24 hours after retinal detachment; 500 mg/kg/day i.p.
Excerpt: as §1, §4, §5

caspase 11 = experiment: Caspase 11 western blot of vitreous and neural retina after retinal detachment; details: samples three days after retinal detachment, 500 mg/kg/day i.p.
caspase 3 = experiment: Caspase 3 colorimetric activity assay in retinal lysates after retinal detachment; details: retinal lysates 24 hours after retinal detachment; 500 mg/kg/day i.p.; P<0.05
Excerpt: as §1, §4, §5

CD68+ cells = experiment: Macrophage infiltration (CD68+ immunostaining) in detached retina; details: one day after induction of retinal detachment; 500 mg/kg/day i.p.; vs vehicle
Excerpt: as §1, §4
In order to assess macrophage infiltration in detached retinas, six eyes from each group (rats treated with vehicle or TUDCA) were analyzed. […] The number of CD68+ cells per […] was determined using the same method as described above for the quantification of TUNEL-positive cells.

effect on retinal detachment-induced activity of caspase 2 (caspase 2): significantly decreased
effect on retinal detachment-induced activity of caspase 9 (caspase 9): significantly decreased
effect on activity of caspase 8 (caspase 8): did not alter
effect on retinal detachment-induced activity of caspase 3 (caspase 3): significantly decreased
SMILES: C[C@H](CCC(=O)NCCS(=O)(=O)O)[C@H]1CC[C@H]2[C@@H]3[C@@H](O)C[C@@H]4C[C@H](O)CC[C@]4(C)[C@H]3CC[C@]12C [TUDCA, tauroursodeoxycholic acid]
ONL thickness ratio (normalized, detached/attached retina) ([1]; five days after detachment, vehicle 0.57±0.04, P=0.002): 0.79±0.03
ONL thickness ratio (normalized, detached/attached retina) ([1]; three days of retinal detachment, vehicle 0.65±0.03, P=0.0016): 0.84±0.03
neuroprotection with delayed treatment (FIG. 1D) [2]: showed efficient neuroprotection
effect on protein carbonyl content (protein carbonyl content): prevented an increase in protein carbonyl content
effect on levels of MCP-1 (MCP-1): did not affect
effect on CHOP expression (CHOP): did not significantly alter CHOP expression
effect on levels of TNF-α (TNF-α): did not affect
effect on activity of caspase 11 (caspase 11): did not alter
effect on macrophage infiltration (CD68+ cells) (CD68+ cells): did not affect macrophage infiltration

Reference: patent US9724357B2, “Methods for preserving photoreceptor cell viability following retinal detachment” (Massachusetts Eye & Ear Infirmary, priority 2011, dated 2017)
